Measurements from patent US5326882A, “Chemiluminescent 3-(substituted Adamant-2'-Ylidene) 1,2-dioxetanes” (Tropix, Inc., priority 1992, dated 1994).

What was measured:
alkaline phosphatase [1] = target: T1, alkaline phosphatase (Bos taurus, UniProt P19111); test: Chemiluminescent signal and signal:background with enhancer polymers (Example XVII); type: biochemical
Description: Four sets of three tubes each, each tube in each set containing 450 μl of a 0.4 mM aqueous solution of one of the four 1,2-dioxetanes being compared in 0.1M diethanolamine containing 1 mM magnesium chloride, 0.02% sodium azide and 0.1% of the enhancer polymer, pH 10.0 (substrate buffer) were prepared and the background signal from each tube measured using a Berthold LB 952T luminometer (Berthold Instruments; Wildbad, Federal Republic of Germany).
Next, 50 μl of an aqueous solution, 2.83×10^-12 M of alkaline phosphatase in 0.1M diethanolamine containing 1 mM magnesium chloride, 0.02% sodium azide, pH 10.0, (final enzyme concentration 2.83×10^-13 M) was added to each tube and the chemiluminescent signals were measured in the luminometer at 5 and 20 minutes. The intensity of the chemiluminescent signals and the signal: background ratios obtained for each of the four 1,2-dioxetanes in the presence of the enhancer polymers are shown in Table III below.
The enhancer polymers used, and the symbols for such polymers used in Table III, were the following: […]

alkaline phosphatase [2] = target: T1, alkaline phosphatase; test: Half-time to plateau at low alkaline phosphatase concentration (Example XLI); type: biochemical; conditions: 0.4 mM dioxetane at pH 10.0; 31.5° C.; 2.53 × 10^-13 M alkaline phosphatase; listed as HO-AMPPD-A

T1 sequence (P19111 20-506 limits assumed): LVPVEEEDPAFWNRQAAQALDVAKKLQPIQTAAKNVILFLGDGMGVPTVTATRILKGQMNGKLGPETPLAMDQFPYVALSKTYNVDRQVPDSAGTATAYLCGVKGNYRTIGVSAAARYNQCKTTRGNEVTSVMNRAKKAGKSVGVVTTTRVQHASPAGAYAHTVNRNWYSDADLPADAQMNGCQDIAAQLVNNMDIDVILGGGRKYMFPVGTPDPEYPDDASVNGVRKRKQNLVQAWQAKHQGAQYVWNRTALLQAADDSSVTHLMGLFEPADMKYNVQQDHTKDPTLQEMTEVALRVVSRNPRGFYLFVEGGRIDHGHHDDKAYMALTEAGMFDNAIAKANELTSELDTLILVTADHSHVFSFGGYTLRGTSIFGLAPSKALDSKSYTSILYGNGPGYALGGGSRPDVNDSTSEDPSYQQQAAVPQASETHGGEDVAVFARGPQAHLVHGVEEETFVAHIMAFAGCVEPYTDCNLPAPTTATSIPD

## COC1(c2cccc(OP(=O)(O)O)c2)OOC12C1CC3CC2CC(O)(C3)C1 (single isomer, unassigned) [A-OH-AMPPD, disodium 3-(4-methoxyspiro-[1,2-dioxetane-3,2'-(5'-hydroxy)tricyclo[3.3.1.1^3,7]decan]-4-yl)phenyl phosphate]
Alkaline phosphatase [1]; polymer BAEDM, 5 min
  S/N: 61.6
  SIGNAL: 5887.3
Alkaline phosphatase [1]; polymer BAEDM, 20 min
  S/N: 77.8
  SIGNAL: 7433.5
Alkaline phosphatase [1]; polymer BAEDM, time 0
  S/N: 1.0
Alkaline phosphatase [1]; polymer BAEDM, time 0 (background, before enzyme)
  SIGNAL: 95.6
Alkaline phosphatase [1]; polymer BZ, 5 min
  S/N: 27.0
  SIGNAL: 2156.9
Alkaline phosphatase [1]; polymer BZ, 20 min
  S/N: 31.7
  SIGNAL: 2536.7
Alkaline phosphatase [1]; polymer BZ, time 0
  S/N: 1.0
Alkaline phosphatase [1]; polymer BZ, time 0 (background, before enzyme)
  SIGNAL: 79.9
Alkaline phosphatase [1]; polymer DAA TMQ, 5 min
  S/N: 61.7
  SIGNAL: 5583.1
Alkaline phosphatase [1]; polymer DAA TMQ, 20 min
  S/N: 69.7
  SIGNAL: 6309.4
Alkaline phosphatase [1]; polymer DAA TMQ, time 0
  S/N: 1.0
Alkaline phosphatase [1]; polymer DAA TMQ, time 0 (background, before enzyme)
  SIGNAL: 90.5
Alkaline phosphatase [1]; polymer DME(OH)B, 5 min
  S/N: 46.1
  SIGNAL: 3931.9
Alkaline phosphatase [1]; polymer DME(OH)B, 20 min
  S/N: 66.2
  SIGNAL: 5300.5
Alkaline phosphatase [1]; polymer DME(OH)B, time 0
  S/N: 1.0
Alkaline phosphatase [1]; polymer DME(OH)B, time 0 (background, before enzyme)
  SIGNAL: 85.2
Alkaline phosphatase [1]; polymer DMEB, 5 min
  S/N: 77.1
  SIGNAL: 6160.6
Alkaline phosphatase [1]; polymer DMEB, 20 min
  S/N: 98.1
  SIGNAL: 7835.2
Alkaline phosphatase [1]; polymer DMEB, time 0
  S/N: 1.0
Alkaline phosphatase [1]; polymer DMEB, time 0 (background, before enzyme)
  SIGNAL: 79.9
Alkaline phosphatase [1]; polymer DMQ TEQ, 5 min
  S/N: 189.7
  SIGNAL: 17235.6
Alkaline phosphatase [1]; polymer DMQ TEQ, 20 min
  S/N: 227.9
  SIGNAL: 20702.2
Alkaline phosphatase [1]; polymer DMQ TEQ, time 0
  S/N: 1.0
Alkaline phosphatase [1]; polymer DMQ TEQ, time 0 (background, before enzyme)
  SIGNAL: 90.8
Alkaline phosphatase [1]; polymer MPB, 5 min
  S/N: 140.7
  SIGNAL: 13165.3
Alkaline phosphatase [1]; polymer MPB, 20 min
  S/N: 172.7
  SIGNAL: 16159.2
Alkaline phosphatase [1]; polymer MPB, time 0
  S/N: 1.0
Alkaline phosphatase [1]; polymer MPB, time 0 (background, before enzyme)
  SIGNAL: 93.6
Alkaline phosphatase [1]; polymer NONE, 5 min
  S/N: 32.9
Alkaline phosphatase [1]; polymer NONE, 5 min, enzyme 2.83×10^-13 M
  SIGNAL: 2863.6
Alkaline phosphatase [1]; polymer NONE, 20 min
  S/N: 36.3
Alkaline phosphatase [1]; polymer NONE, 20 min, enzyme 2.83×10^-13 M
  SIGNAL: 3160.8
Alkaline phosphatase [1]; polymer NONE, time 0
  S/N: 1.0
Alkaline phosphatase [1]; polymer NONE, time 0 (background, before enzyme)
  SIGNAL: 87.0
Alkaline phosphatase [1]; polymer S/TMQ(1:2), 5 min
  S/N: 112.5
  SIGNAL: 10193.8
Alkaline phosphatase [1]; polymer S/TMQ(1:2), 20 min
  S/N: 158.6
  SIGNAL: 11365.1
Alkaline phosphatase [1]; polymer S/TMQ(1:2), time 0
  S/N: 1.0
Alkaline phosphatase [1]; polymer S/TMQ(1:2), time 0 (background, before enzyme)
  SIGNAL: 90.6
Alkaline phosphatase [1]; polymer S/TMQ(1:4), 5 min
  S/N: 114.5
  SIGNAL: 9294.6
Alkaline phosphatase [1]; polymer S/TMQ(1:4), 20 min
  S/N: 148.1
  SIGNAL: 1201.7
Alkaline phosphatase [1]; polymer S/TMQ(1:4), time 0
  S/N: 1.0
Alkaline phosphatase [1]; polymer S/TMQ(1:4), time 0 (background, before enzyme)
  SIGNAL: 81.2
Alkaline phosphatase [1]; polymer SAPPHIRE (BDMQ), time 0 (background, before enzyme)
  SIGNAL: 86.1
Alkaline phosphatase [1]; polymer SAPPHIRE, 5 min
  S/N: 244.5
  SIGNAL: 21051.3
Alkaline phosphatase [1]; polymer SAPPHIRE, 20 min
  S/N: 292.3
  SIGNAL: 25330.3
Alkaline phosphatase [1]; polymer SAPPHIRE, time 0
  S/N: 1.0
Alkaline phosphatase [1]; polymer TBQ, 5 min
  S/N: 366.0
  SIGNAL: 37244.5
Alkaline phosphatase [1]; polymer TBQ, 20 min
  S/N: 438.0
  SIGNAL: 44569.8
Alkaline phosphatase [1]; polymer TBQ, time 0
  S/N: 1.0
Alkaline phosphatase [1]; polymer TBQ, time 0 (background, before enzyme)
  SIGNAL: 101.8
Alkaline phosphatase [1]; polymer TEQ, 5 min
  S/N: 45.24
  SIGNAL: 15779.8
Alkaline phosphatase [1]; polymer TEQ, 20 min
  S/N: 54.7
  SIGNAL: 1908.9
Alkaline phosphatase [1]; polymer TEQ, time 0
  S/N: 1.0
Alkaline phosphatase [1]; polymer TEQ, time 0 (background, before enzyme)
  SIGNAL: 348.8
Alkaline phosphatase [1]; polymer TMQ, 5 min
  S/N: 113.6
  SIGNAL: 8853.4
Alkaline phosphatase [1]; polymer TMQ, 20 min
  S/N: 149.6
  SIGNAL: 11658.3
Alkaline phosphatase [1]; polymer TMQ, time 0
  S/N: 1.0
Alkaline phosphatase [1]; polymer TMQ, time 0 (background, before enzyme)
  SIGNAL: 77.9
Alkaline phosphatase [2]
  HALF-TIME TO PLATEAU (min.) AL LOW ALK PHOS CONCENTRATION: 0.93 min
